Key:
131/4-5B1 melanoma cells = assay: Proliferation of 131/4-5B1 melanoma cells (viable cell count); assay type: cell-based; details: Homo sapiens; 131/4-5B1 cells, 72 hours incubation
Protocol: 131/4-5B1 (human melanoma brain-metastasis cell line that was obtained from Dr. Kerbel' Lab) (15,000/well) were plated onto 24-well culture in RPMI medium supplemented with 10% FBS and incubated for 24 hours (37° C.; 5% CO2). The medium was then replaced with RPMI supplemented with 10% FBS. Cells were exposed to free selumetinib, free amine-modified dabrafenib (Scheme 8) or both, at a SLM-DBF mol ratio of 10:1 at serial dilutions. Number of viable cells was counted by a Z1 Coulter Counter® Cell and Particle Counter (Beckman Coulter®) following 72 hours incubation.
Inhibition of 131/4-5B1, human melanoma brain-metastasis cells by free selumetinib (SLM), free diol-modified dabrafenib (DBFdiol; see, Scheme 11), a combination of the free drugs at 3:1 SLM:DBFdiol mol ratio, PGA-SLM (see, Scheme 19), PGA-DBFdiol (see, Scheme 11), a combination of PGA-SLM and PGA-DBFdiol, and PGA-SLM-DBFdiol conjugate (see, Scheme 23) was determined.
131/4-5B1 cells (15,000/well) were plated onto 24-well culture in RPMI medium supplemented with 10% FBS and incubated for 24 hours (37° C.; 5% CO2). […] Cells were exposed to PGA-SLM conjugate, PGA-DBFdiol conjugate, to the combination of both at a SLM-DBF mol ratio of 10:1 and to the combined PGA-SLM-DBFdiol conjugate, calculated according to the SLM loading and assuming 10:1 mol ratio between SLM and DBF, at serial dilutions. […]

[1] = tested on: MEK and ERK phosphorylation; details: BRAF mutated cell lines; cited from earlier work
mutant BRAF = details: cell lines; cited from earlier work
melanoma xenografts = details: cited from earlier work

Cn1cnc2c(F)c(Nc3ccc(Br)cc3Cl)c(C(=O)NOCCO)cc21 [SLM, Selumetinib]
IC50 (131/4-5B1 melanoma cells): 70 nM

CC(C)(C)c1nc(-c2cccc(NS(=O)(=O)c3c(F)cccc3F)c2F)c(-c2ccnc(N)n2)s1 [Dabrafenib]
inhibition of MEK and ERK phosphorylation [1]: dose-dependent inhibition | selectivity for mutant BRAF over wild-type BRAF (mutant BRAF): more than 100 fold | tumor regression (melanoma xenografts): induces tumor regression
